According to patent US20220288068A1, “PHARMACEUTICAL PREPARATION” (MERCK PATENT GMBH, priority 2019, published 2022):
In brackets after ≈: the same amount, converted by molar mass.

Columns and labels:
[1] = Solubility in oils for SEDDS/SMEDDS; assay type: physicochemical; settings: oil or lipid; neutral oil
Experimental: Due to the relatively high doses necessary for therapeutic effect (approximately 500 mg) and a maximal dose in a self-emulsifying capsule formulation (SEDDS or SMEDDS) of not more than 5 mg, the patient would have to take 100 capsules to achieve the target dose.

[2] = Young's modulus by ultrasound-assisted instrumented single punch press; assay type: physicochemical; settings: neat substance, in dependence of solid fraction; FIG. 3 and FIG. 4
Experimental: Young's modulus is assessed as an indicator for material stiffness (the higher Young's modulus, the more rigid a substance is) whereby its measurement is done in dependence of the solid fraction, which is complementary to porosity (i.e. solid fraction=1−porosity fraction). With this, a solid fraction of 1 indicates no porosity, i.e. no air entrapped in the solid phase. Pharmaceutical relevant solid fractions usually range from 0.75 to 0.85. Porosities have been determined by nitrogen pycnometry.
The measurements to determine the Young's modulus are conducted on a commercially available instrumented single punch press (Romaco Kilian StylOne system) with ultrasound-assisted measurement punches. For this purpose, neat substances are compacted between the upper and the lower punch, leading to densification of the material. The ultrasound velocity in the sample in dependence of the degree of densification is recorded and used for calculation of Youngs modulus of the specific substance.

[3] = Solubility in biorelevant media (FaSSIF, FeSSIF)
Experimental: Despite such low solubility rather high doses of far above 100 mg are needed for its use in the therapy. […] Accordingly, a pharmaceutical preparation for oral administration must have a high bioavailability to provide the high doses that are needed to achieve the desired therapeutic effect. Otherwise the pharmaceutical preparation would need to have an increased size not usable for its oral administration due to problems with its swallowability.

solubility [1]: < 5000 µg/mL
BCS classification ([3]; Amidon et al., 1995): BCS IV
solubility ([3]; fassif): 43 µg/mL (≈ 87.3 µM)
SMILES: CN1CCC(COc2cnc(-c3cccc(Cn4nc(-c5cccc(C#N)c5)ccc4=O)c3)nc2)CC1 [3-(1-{3-[5-(1-Methyl-piperidin-4-ylmethoxy)-pyrimidin-2-yl]-benzyl}-6-oxo-1,6-dihydro-pyridazin-3-yl)-benzonitrile]
Young's modulus (elastic properties) [2]: distinct lower Young's moduli compared to widely used pharmaceutical fillers
